{
  "source": "patent US6369208B1",
  "about": "“Capped synthetic RNA, analogs, and aptamers” (Merck & Co., Inc., priority 1995, dated 2002)",
  "key": {"influenza endonuclease [1]": {"target": "T1, influenza endonuclease (Influenza A virus, UniProt P03428+P03433)"}, "influenza endonuclease [2]": {"target": "T1, influenza endonuclease", "remark": "listed apart in the source"}, "influenza endonuclease [3]": {"target": "T1, influenza endonuclease", "remark": "listed apart in the source"}},
  "data": [
    {"substance": "m^7GpppG(2′-OMe)UAUUAAUA(3′-dA)-3′ [SEQ.ID.NO.:3]", "values": [
      {"measurement": "inhibition of influenza endonuclease (in words)", "setting": "influenza endonuclease [1]", "result": "potent inhibitor of influenza endonuclease"},
      {"measurement": "binding of the labeled capped 10-mer displaced by competition with unlabeled competitor", "setting": "influenza endonuclease [2]", "result": 95, "unit": "%"},
      {"measurement": "saturation amplitude", "setting": "influenza endonuclease [2]", "result": 5.2, "unit": "nM"}
    ]},
    {"substance": "pppG(2′-OMe)UAUUAAUA(3′dA)-3′ [SEQ.ID.NO.:21]", "values": [
      {"measurement": "binding of the labeled capped 10-mer competed by unlabeled competitor", "setting": "influenza endonuclease [2]", "result": 10, "unit": "%"}
    ]},
    {"substance": "pppG(2′-OMe)UUUUUAUUUUUAAUUUUC-3′ [SEQ.ID.NO.:4]", "values": [
      {"measurement": "Km", "setting": "influenza endonuclease [3]", "result": 0.4, "unit": "nM"},
      {"measurement": "site of cleavage by influenza endonuclease", "setting": "influenza endonuclease [3]", "result": "between the two A's at positions 13-14"}
    ]}
  ]
}
